{"source": "paper PMC5085761", "about": "(International Journal of Molecular Sciences, 2016)", "key": {"OAT1": {"biological_target": "T1, OAT1 (Homo sapiens, UniProt Q4U2R8)", "T1 construct": "host or cells: Flp-in-293", "T1 sequence (Q4U2R8 1-563)": "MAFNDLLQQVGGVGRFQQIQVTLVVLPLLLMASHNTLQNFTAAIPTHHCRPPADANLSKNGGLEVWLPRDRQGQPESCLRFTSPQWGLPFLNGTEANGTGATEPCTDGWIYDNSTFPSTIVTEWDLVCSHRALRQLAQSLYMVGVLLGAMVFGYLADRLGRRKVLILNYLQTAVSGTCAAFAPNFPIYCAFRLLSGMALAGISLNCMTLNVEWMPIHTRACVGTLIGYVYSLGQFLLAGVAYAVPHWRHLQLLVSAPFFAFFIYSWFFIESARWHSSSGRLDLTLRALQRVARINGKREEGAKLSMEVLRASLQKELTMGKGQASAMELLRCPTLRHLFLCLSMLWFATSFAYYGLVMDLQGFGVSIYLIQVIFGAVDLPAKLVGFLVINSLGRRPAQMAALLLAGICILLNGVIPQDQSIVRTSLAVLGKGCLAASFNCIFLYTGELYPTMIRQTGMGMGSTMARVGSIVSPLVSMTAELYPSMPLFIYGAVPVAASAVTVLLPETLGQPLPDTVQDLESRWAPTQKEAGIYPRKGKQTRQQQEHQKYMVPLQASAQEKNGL", "assay": "[14C]fluciclovine uptake by OAT1-expressing cells", "type": "in vitro ADME", "details": "OAT1 cells vs mock cells", "method": "For the SLC transporter experiments, Mock Flp-in-293 cells (Flp/mock), OAT1-expressing Flp-in-293 cells (Flp/OAT1), mock HEK293 cells (HEK/mock), and OATP1B3-expressing HEK293 cells (HEK/OATP1B3) were obtained from Kanazawa University (Ishikawa, Japan). Briefly, Flp-in-293 and HEK293 cells were transfected with the appropriate plasmid DNA and selected using antibiotics (hygromycin or G-418). All cell lines were cultured in DMEM (Life Technologies Japan) supplemented with 10% (v/v) fetal bovine serum (American Type Culture Collection) and antibiotics (100 U/mL penicillin and 100 μg/mL streptomycin (Life Technologies Japan) for mock cells, 0.2 mg/mL hygromycin for Flp/OAT1 cells, and 1.2 mg/mL G-418 (Roche Diagnostics K.K., Tokyo, Japan) for HEK/OATP1B3 cells) at 37 °C under an atmosphere containing 5% CO2. […]\nThe experiments were performed as described previously, with minor modifications. […] The cells were lysed in 0.3 mL of 0.1N NaOH at room temperature, after which the radioactivity of each aliquot was measured as described above. The protein concentration of the cell lysate was determined with a VersaMax microplate reader (Molecular Devices Japan K.K., Osaka, Japan) or SpectraMax i3x (Molecular Devices Japan K.K.; only for OATP1B1) using a BCA Protein Assay Kit (Thermo Fisher Scientific, Kanagawa, Japan). Tracer uptake was expressed as pmol/mg protein. […]"}, "human BCRP": {"biological_target": "T2, human BCRP (Homo sapiens, UniProt Q9UNQ0)", "T2 construct": "purchased GenoMembrane Co., Ltd. (Kanagawa, Japan); host or cells: Sf9", "T2 sequence (Q9UNQ0 1-655)": "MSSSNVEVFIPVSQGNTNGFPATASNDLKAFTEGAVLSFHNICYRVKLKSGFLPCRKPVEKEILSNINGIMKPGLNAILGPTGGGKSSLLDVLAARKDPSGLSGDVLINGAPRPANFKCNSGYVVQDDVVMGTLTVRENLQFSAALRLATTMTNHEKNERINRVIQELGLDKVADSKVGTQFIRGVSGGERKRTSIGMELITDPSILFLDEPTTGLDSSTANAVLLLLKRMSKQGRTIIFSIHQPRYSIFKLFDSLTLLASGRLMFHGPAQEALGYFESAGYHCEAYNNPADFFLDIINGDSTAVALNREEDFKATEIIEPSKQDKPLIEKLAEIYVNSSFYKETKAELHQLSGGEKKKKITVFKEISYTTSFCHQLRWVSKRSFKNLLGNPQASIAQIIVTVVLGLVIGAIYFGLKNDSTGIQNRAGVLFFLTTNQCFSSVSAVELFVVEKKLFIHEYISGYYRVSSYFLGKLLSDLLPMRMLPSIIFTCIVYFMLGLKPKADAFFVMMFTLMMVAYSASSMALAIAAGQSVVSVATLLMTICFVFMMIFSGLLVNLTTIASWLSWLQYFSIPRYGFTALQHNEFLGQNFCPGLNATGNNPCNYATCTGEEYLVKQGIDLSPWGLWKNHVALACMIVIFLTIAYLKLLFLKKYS", "assay": "[14C]fluciclovine uptake by BCRP-expressing inside-out vesicles", "type": "in vitro ADME", "method": "For ABC transporters, experimental kits containing Sf9-derived vesicles with high expression levels of human P-gp, MRP4, BCRP, and each ABC transporter (including buffer, ATP/AMP solution, and glutathione) were purchased from GenoMembrane Co., Ltd. (Kanagawa, Japan).\nVesicular transport assays were carried out according to the manufacturer’s protocol. […] The reaction was started by suspending 50 μg of vesicles (10 μL) in 40 μL of the reaction buffer. After incubation for an appropriate period of time, the reaction was stopped by the addition of ice-cold stop buffer (40 mM MOPS-Tris and 70 mM KCl; pH 7.0), after which the solution was filtered through a 0.45 μm HA filter (Millipore Corp., Billerica, MA, USA) using suction, and was washed twice in 5 mL of ice-cold stop buffer. The radioactivity of the filter was measured with a Tri-Carb 2910TR liquid scintillation counter (PerkinElmer) using Ultima Gold (PerkinElmer). The amount of tracer uptake was normalized to the membrane protein amount described in the product information sheets."}}}
{"smiles": "N[14C]1(C(=O)O)CC(F)C1", "note": "(stereo not drawn) [[^14C]fluciclovine, trans-1-amino-3-fluoro[1-^14C]cyclobutanecarboxylic acid]", "values": [{"measurement": "drug transporter-mediated uptake", "setting": "OAT1", "result": "negligible"}, {"measurement": "uptake compared with control vesicles", "setting": "human BCRP", "result": "reduced in comparison to that of the control vesicles, albeit not significantly"}]}
